# In patent publication US7264947B2, “Activity dependent neurotrophic factor III (ADNF III)” (United States of America, as represented by the Secretary …, priority 1997, dated 2007):
# Read-outs that look alike come from different tables or passages of the source.
# B1: clone 25: full length ADNF III expressed from clone 25, tested as E. coli protein extract (protein)
# chain: MVNRLSIPKPNLNSTGVNMMSNVHLQQNNYGVKSVGQSYGVGQSVRLGLGGNAPVSIPQQSQSVKQLLPSGNGRSFGLGAEQRPPAAARYSLQTANTSLPPGQVKSPSVSQSQASRVLGQSSSKPPPAATGPPPSNHCATQKWKICTICNELFPENVYSVHFEKEHKAEKVPAVANYIMKIHNFTSKCLYCNRYLPTDTLLNHMLIHGLSCPYCRSTFNDVEKMAAHMRMVHIDEEMGPKTDSTLSFDLTLQQGSHTNIHLLVTTYNLRDAPAESVAYHAQNNAPVPPKPQPKVQEKADVPVKSSPQAAVPYKKDVGKTLCPLCFSILKGPISDALAHHLRERHQVIQTVHPVEKKLTYKCIHCLGVYTSNMTASTITLHLVHCRGVGKTQNGQDKTNAPSRLNQSPGLAPVKRTYEQMEFPLLKKRKLEEDADSPSCFEEKPEEPVVLALDPKGHEDDSYEARKSFLTKYFNKQPYPTRREIEKLAASLWLWKSDIASHFSNKRKKCVRDCEKYKPGVLLGFNMKELNKVKHEMDFDAEWLFENHDEKDSRVNASKTVDKKHNLGKEDDSFSDSFEHLEEESNGSGSPFDPVFEVEPKIPSDNLEEPVPKVIPEGALESEKLDQKEEEEEEEEEDGSKYETIHLTEEPAKLMHDASDSEVDQDDVVEWKDGASPSESGPGSQQISDFEDNTCEMKPGTWSDESSQSEDARSSKPAAKKKATVQDDTEQLKWKNSSYGKVEGFWSKDQSQWENASENAERLPNPQIEWQNSTIDSEDGEQFDSMTDGVADPMHGSLTGVKLSSQQA
# modifications: left off: large carriers
# notes: full length ADNF III expressed from clone 25, tested as E. coli protein extract
# Legend:
# [1] = system: ADNF III mRNA; assay: mimic polymerase chain reaction of ADNF III mRNA in mouse embryos incubated in vitro; type: cell-based; details: 9.5-day-old mouse embryos incubated in vitro for four hours, ratio with cyclophilin mRNA
# [2] = system: astrocytes; assay: western blot of secreted ADNF-like immunoreactivity in astrocyte conditioned medium; type: cell-based, rat
# Description: FIGS. 4A-B. FIG. 4A illustrates the western blot hybridization for immunological detection of the cloned ADNF III protein from bacterial extracts. Bacterial extracts expressing clone p25 were subjected to 10% SDS-polyacrylamide gel electrophoresis followed by western blot analysis with the antibodies used for cloning. […] CBB=Coomassie Brilliant Blue (protein) staining of the same lanes that were subjected western blot analysis. […] FIG. 4B illustrates immunological identification of a secreted ADNF III protein in astrocyte conditioned medium. Astrocyte-conditioned medium was prepared as described supra (see Brenneman & Gozes, J. Clin. Invest. 97:[…] (1996)), with a protein of a high molecular weight identified as the ADNF III molecule by western blot hybridization. SDS-polyacrylamide gel electrophoresis was performed as indicated in the above cited paper. Astroglial cultures obtained from newborn rat cerebral cortex were utilized. Cell extracts and conditioned medium from astrocytes that were treated or untreated with VIP (+, −) were subjected to electrophoresis through 10% polyacrylamide slab gel containing 0.1% SDS. Western blot analysis was performed with antibodies utilized for the cloning (anti-SALLRSIPA=α1).
# a. Astrocytes: Astrocytes were prepared from 1-day-old (Sprague-Dawley) rats. […]
# [3] = system: cerebral cortical cultures; type: cell-based, newborn rats; details: for dilutions giving significant neuroprotection against tetrodotoxin: dilutions of a 1 mg/ml protein solution (E. coli extract) in PBS, 1 μM tetrodotoxin, five days
# [4] = system: choline acetyl transferase; assay: brain ChAT (choline acetyl transferase) activity in ApoE-deficient mice; type: in vivo; details: daily subcutaneous injections from birth to 14 days, measured at 21 days
# Method: The graph depicts incorporation of radio-labeled choline into acetylcholine. Experiments were conducted as described. Apo-E deficient mice are designated: ApoE; 100% activity in the control (C57B6) mice indicated 669758.4 pmole/mg protein/min. As the experiments were repeated 3-5 times the results were standardized against the control calibrated at 100% per each experiment. ApoE-deficient mice daily injected with peptides are designated ADNF-14, ADNF-9, and NAP, respectively.
# ChAT activity was measured according to published procedures (Formum et al., Neurochem. 24:407-409 (1975)). Brains were homogenized with 10 volumes of 50 mM phosphate buffer containing 300 mM NaCl, 20 mM EDTA, and 0.5% triton. The homogenates were centrifuged at 12,000×g for 15 min., and […] of supernatant was mixed with […] of a solution of […] ^14C-acetyl CoA ([…] NEN), 20 mM acetylcholine, 1.6 mM choline chloride, 0.25 mM eserine, and phosphate buffer. Incubation was 15 min. at 37° C. The reaction was terminated and radioactivity was measured in a beta-counter. • 21. Apolipoprotein E (ApoE) Deficient Mouse Model
# (§1) ApoE knockout mice and normal controls were a gift from the late Prof. Shlomo Eisenberg of Tel Aviv University, originally provided by Dr. J. L. Breslow (Plump et al., Cell 71:343-353 (1992)). The ApoE knockout mice were obtained from embryonic stem cells OLA 129 in C57B6×FVB mice (as described). Age-matched controls were inbred C57B6 mice. Groups of mouse pups were treated from birth until the age of 14 days. Daily subcutaneous injections included: […] saline (days 1 through 4), […] saline (days 5 through 10) and […] saline (days 11-14).
# ChAT activity was measured according to published procedures (Formum et al., Neurochem. 24:407-409 (1975)).
# [5] = system: ApoE-deficient mice; assay: developmental milestones (placing response, cliff avoidance) in ApoE-deficient mice; type: in vivo; details: for acquisition of the placing response and the cliff avoidance response: daily injection; for marked improvement of placing response at the first day of treatment: tested 60 min. after injection
# Description: Animals (15-37 per experimental group, 5-8 per litter) were submitted to placing response assays daily following injection of: 1. saline (open circles, C57B6 mice=control, n=37, closed circles, ApoE deficient=ApoE, n=22). Experiments were repeated three times. Score indicates: 0=no reaction, 1=time to acquire a response shorter than 15 seconds; 2=time to acquire a response shorter than 10 seconds; 3=time to acquire a response shorter than 5 seconds. Age (days) indicate: the age of the tested animals in days. Results are mean±SEM.
# as §1
# Developmental milestones were measured using at least three dams with […] each for every experimental point. All observations were made between 12 noon and 4 pm. From day one through day six, mice were weighed and tested 60 min. after the daily injection. Placing is a behavioral parameter that is measured as the time elapsing between contact of the foot against the edge of an object and its placing on the top of the same object.
# Further measurements in the Apo-E-deficient mouse included assessments of the time of onset of developmental milestones of behavior. […] A significant difference was observed among the treatment groups on the first day of testing (P<0.0001), with inbred C57B6 mice developing faster than the ApoE-deficient animals. […] NAP-treated animals were the fastest.
# [6] = system: cerebral cortical cultures; assay: neuroprotection against β-amyloid peptide (25-35) neurotoxicity in cerebral cortical cultures; type: cell-based, newborn rats; details: dilutions of a 1 mg/ml protein solution (E. coli extract) in PBS, 25 μM β-amyloid fragment 25-35, five days
# [7] = system: neuronal cell death; assay: neuroprotective effects of ADNF III (summary statement); type: cell-based
# Description: The present invention relates to the discovery of a nucleic acid encoding a novel neuroprotective polypeptide, i.e., Activity Dependent Neurotrophic Factor III (ADNF III), also called Activity Dependent Neuroprotective Protein (ADNP). […] Based on the recognized homology between ADNF I and hsp60, a heat shock protein, and PIF1, a DNA repair protein, these two epitopes were utilized to prepare antibodies which, in turn, were used to screen a mouse cDNA-expression library to identify the new neuroprotective polypeptide ADNF III. One mouse ADNF III cDNA clone consists of about 2418 base pairs of an open reading frame, which encodes an ADNF III polypeptide of about 806 amino acids, pI 5.85 (nucleotide sequence, SEQ ID NO:4; amino acid sequence, SEQ ID NO:3, see FIG. 1). An additional mouse cDNA has been cloned, encoding an ADNF III polypeptide of about 828 amino acids, pI 5.99 (nucleotide sequence, SEQ ID NO:54; amino acid sequence, SEQ ID NO:55; see FIG. 11). Human cDNAs encoding ADNF III have also been cloned (“H3” nucleotide sequence, SEQ ID NO:2; “H3” amino acid sequence, SEQ ID NO:1; “H3” nucleotide sequence, SEQ ID NO:56 and FIG. 12; “H3” amino acid sequence, SEQ ID NO:57 and FIG. 12; “H7” nucleotide sequence, SEQ ID NO:58 and FIG. 13; and “H7” amino acid sequence, SEQ ID NO:59 and FIG. 13). […] The promoter sequence for ADNF III has also been cloned (SEQ ID NO:60 and FIG. 14).
molecule,measurement,setting,value
"VIP: 28-amino acid peptide, secretagogue for ADNF",increase in ADNF III mRNA,[1],two-fold
same,increase in the secreted 60 KD ADNF-like immunoreactivity,[2],up to 2 fold
SVRLGLGGNAPVSIPQQS [reference compound],neuroprotection (in words),"[3]; FIG. 6A/6B, toxin for the control curves not stated",inactive
SALLRSIPA [ADNF-9],brain ChAT activity compared with vehicle-treated or untreated ApoE-deficient mice,[4],did not significantly improve
same,placing response from the second postnatal day onwards,[5]; P<0.0001,best performers
same,acquisition of the placing response and the cliff avoidance response,[5],showed acceleration
same,marked improvement of placing response at the first day of treatment,[5],marked improvement
VLGGGSALLRSIPA [ADNF-14],brain ChAT activity compared with vehicle-treated or untreated ApoE-deficient mice,[4],did not significantly improve
same,level of performance reached in placing response,[5],never reached the level of performance of the NAP or ADNF-9 animals
same,day on which a significant difference between treated and untreated animals began to appear (placing response),[5]; P<0.05,third postnatal day
same,acquisition of the placing response and the cliff avoidance response,[5],showed acceleration
same,marked improvement of placing response at the first day of treatment,[5],not
B1,dilutions giving significant neuroprotection against tetrodotoxin,[3],10^−15-10^−13
same,dilutions giving significant neuroprotection against tetrodotoxin,[3]; listed as clone p25,10^−14
same,dilutions giving significant neuroprotection against β-amyloid,[6],> 10^−15
same,dilutions giving significant neuroprotection against β-amyloid,[6]; listed as clone p25,10^−14
same,EC50 of neuroprotective effects,[7],in the femtomolar range
